Patent publication US20240335433A1, “CELL CYCLE SYNCHRONIZATION PROCESS” (priority 2023, published 2024)
Entries after “also recorded” stand apart in the source; their conditions may differ.

Assays:
[1] = Removal of thymidine analogues from circulation (S phase labelling window after injection); conditions: mouse, in vivo
Experimental: These two molecules become stably incorporated into DNA during DNA replication (S phase). When either is injected into mice, it labels at high levels only those tissue cells actively replicating DNA (in S phase) at that time. Because these drugs are both rapidly removed from circulation, only cells actively replicating DNA within 1 hour of injection are labelled. If the second drug is introduced into the same animal at a later time, thereafter, it too will label only those cells in S phase at the time of the second injection. The tissues are then collected and stained for BRDU and EDU with separate fluorescence tags. The intensity of each marker is then determined by fluorescent image analysis. Fortunately, it is the characteristic of dividing cells that these two labels are incorporated most efficiently into nuclei of cells near the middle of S phase. When the two injections are separated by the length of the cell cycle, therefore, both markers will be stained at maximal levels in the same cell. The cell cycle characteristics of a tissue can then be determined by comparing results following injections separated by increasing lengths of time.

Lewis lung carcinoma = Lewis lung carcinoma tumor growth in C57Bl/6 mice; assay type: in vivo, mouse; conditions: for inhibition of Lewis lung carcinoma tumor growth: Cell Cycle Therapy, IP injections every 10 hours 40 min with rest periods
Experimental: The Lewis Lung Carcinoma model is a commonly used tumor model for assessment of general anti-tumor activity. The cells can be grown in culture and then introduced underneath the skin on the back of syngeneic […] mice. When 1-2 million cells are introduced, tumors begin to form within 6-10 days. This is an extremely aggressive tumor, with doubling times of 3 days or less. […] In this study 2 million cells were injected underneath the skin on the mid back of the mice. The tumor was measured with calipers to determine its size. To confirm size measurements, the tumor was excised in total and weighed at the end of the experiment. All anti-tumor drug injections were intraperitoneal (IP). Mice in the range of 8-16 weeks of age were utilized, but within a given experiment, mice within the same age range were generally used for comparison. All studies were conducted under standard guidelines, and conformed to the protocol approved the Case Western Reserve and the Northeast Ohio Medical University IACUC. Weight loss was measured to determine animal health, with loss of over 20% an indication for experimental termination. Similarly, tumors were not allowed to grow beyond 15% of body weight.
The ability of a treatment regimen to block tumor growth was determined with injections of topotecan, either alone or in combination with EDU. […] In this case, the increase of tumor size was measured. […] In general, EDU injections of 0.2 ml of 9 mg/ml drug (in phosphate buffered saline) were performed. These injections involved intermittent rest periods, generally 1-2 rest periods between 4-5 EDU injections. To increase the effectiveness of EDU injections, two such injections were at times performed within a 20 min period every 10 hours 40 min.
When higher volumes were injected (0.23 ml) the rest times were increased. […] With 0.2 ml injections of topotecan ([…]), three injections were often followed by 4-5 rest periods (FIGS. 12 and 13A-C).
EDU was always injected at 9 mg/ml (0.2 ml per injection). 1-3 such injections were followed immediately, or after 1-5 rest periods, by 1-4 injections of topotecan (0.18 ml, 0.2 mg/ml).
The experiment involved 24 C57Bl/6 mice, each of which received injections of 2 million Lewis lung carcinoma cells under the skin on their backs. Three days later these animals were randomly divided into three groups. The first group received three injections of topotecan separated by the length of the cell cycle (10 hours 40 min). The three-injection set was then followed by a long rest period precisely equal to 5 cell cycle lengths; and the process was repeated (FIG. 14C). For comparison, another set of mice received a single injection at the same time each day. […] All topotecan injections were identical (0.2 ml of 0.18 mg/ml topotecan). As a control, 8 mice received 0.2 ml injections of phosphate buffered saline (PBS) at the same time as the cell cycle group. […]

mouse gut crypt cells = test: Cell cycle synchrony of gut crypt cells after repeated injections (EDU/BRDU incorporation, cyclin D1 staining); conditions: for ability to induce cell cycle synchrony in the mouse gut: EDU: high concentrations; for cell cycle synchrony of gut cells: four 10-hour injections separated by 40 hours without injection, repeated four times
Experimental: All experiments were performed according to separate protocols approved by IACUC committees at the following institutions: the Northeast Ohio Medical University, and Case Western Reserve University. Studies of cell cycle length were approved by the IACUC of the Cleveland State University. Recall that the proliferating cells of the small intestine are located near the basement membrane in regions termed the crypt. Cells in this region are the only cells that proliferate in the gut, with the exception of rare proliferation of support cells in the matrix of the villi. Epithelial cells in the crypt region are essentially all proliferating all the time. Consequently, they are actively labeled by a pulse of EDU to label cells in S phase. Cells not labeled with EDU are in G2-G1 phases, and are labeled with cyclin D1 (FIG. 6).
Finally, the tissue was analyzed a full 10 hours following the final topotecan injection.
As a control to the above studies, the tissues described above were stained for the expression of cyclin D1. […] Thus, upon entry into S phase the level of cyclin D1 is always reduced to near zero. It returns to high levels of expression upon entry into G2 phase, but only in cells that are actively proliferating. Therefore, an actively proliferating cell would incorporate EDU if it were in S phase, and it would express cyclin D1 if it were in any other cell cycle phase. If all the cells of a tissue either incorporate EDU or express high cyclin D1 levels, all the cells of the tissue are actively proliferating. […] Further analysis was performed at 2 hour intervals from 0 hours to 10 hours following the final topotecan injection.
Separate animals received injections of 0.20 ml of topotecan at 0.33 mg/ml, 0.20 mg/ml, or 0.12 ml of 0.20 mg/ml topotecan. Each animal was given four 10-hour injections of a given concentration, separated by 40 hours without injection; repeated four times. At 5 hours following the final topotecan injection, BRDU was injected into the animals to identify cells in S phase between the timed topotecan injection. Animals injected with BRDU were then injected again 5 hours later with EDU (10 hours after the final topotecan injection), to identify cells in S phase at the time the next successive topotecan injection would have taken place. 50 min following the EDU injection tissues were collected and analyzed.

[2] = Experimental: Extensive studies were conducted to determine the optimal spacing between injections for C57Bl/6 mice, as differences between mouse strains might exist. […] After the 9 injections spaced apart by these times were complete, the animals were weighed over the next 10 days to determine their overall health. […]
NIH3T3 = test: Cell cycle specific toxicity in NIH3T3 cultures (clonal survival after brief drug treatment); assay type: cell-based
Experimental: The examples were performed on the contact inhibited cell line, NIH3T3. […] They must be cultured so as to never reach confluence; since, like normal cells, they stop growing when becoming confluent on the culture plate. Thus, they are plated at 60,000 to 150,000 cells per 35 mm plate, and transferred to a new plate every 2-3 days. The cells must also be limited in passage number to ensure their growth rate is rapid. The definition of low passage cells will vary from one lab to another, and the actual cell cycle length of these cells may vary, but it is critical that from one experiment to another the length of the cell cycle remains constant.
Constant killing over a broad concentration range: The drug to be tested is diluted across a broad concentration range, and placed on separate actively proliferating NIH3T3 cultures for two hours. […] The plates are then fixed, stained with crystal violet, and the number of colonies counted and compared to a mock treated culture. […] Cloning of the cells following drug treatment allows a quantitative determination of the number of surviving cells.
Serum stimulated growth: NIH3T3 cells stop growing and enter quiescence when serum is reduced in the medium to 0.3%, so long as they are at a sufficient density on the plate. […] The drug to be analyzed is added for 3 hours at various times following serum addition, and then washed off. […]

[3] = tested on: Lewis lung carcinoma tumors; test: Cell cycle synchrony of Lewis lung carcinoma tumor cells (EDU labeling); assay type: in vivo, mouse; conditions: 9 injections separated by 10 hours, tumor-bearing C57Black mice
Experimental: All studies of tumor killing were performed exactly as described above for studies of cell cycle synchrony. Thus, 9 injections of topotecan were separated from one another by 10 hours in C57Black mice carrying a tumor of approximately 0.5 gm. EDU was injected into three different topotecan treated animals at 1 hour, 5 hour or 10 hours as a marker for DNA synthesis. A control tumor-bearing mouse received mock injections and was injected with EDU 5 hours after the final injection. […] together with normal gut tissue was collected and analyzed.

DNA synthesis = test: Rate of DNA synthesis after topotecan (observation of the inventor)
Source text: Topotecan treatments would be removed and followed at various times thereafter with an BRDU treatment.

[4] = remark: listed apart in the source
Experimental: Analyses began with approximately 10% of the LD50 concentration. It was then escalated until overall toxicity to the animals was observed. The final concentration of topotecan injected was 0.33 mg/ml-0.2 mg/ml; 0.05-0.27 ml per injection (depending on the mouse strain and weight of the mouse). Following determination of general topotecan toxicity following multiple injections, it was necessary to determine if, as predicted, injections spaced apart by the length of the cell cycle would be less harmful to the animals.
[…] […] […] Thus, 9 injections at 8 hours, or 9 injections at 12 hours, 14 hours, 16 hours or 20 hours were performed, and the effect of these upon the animals determined. The 8 hour time was selected to definitely be shorter than the cell cycle, and 20 hours to be longer than the cell cycle, so that negative controls would be built into the protocol.

[5] = injections every 24 hours for up to 20 days

## O=c1[nH]c(=O)n([C@H]2C[C@H](O)[C@@H](CO)O2)cc1Br [BRDU, Bromodeoxyuridine]
[1]
  time after injection within which replicating cells are labelled (rapid removal from circulation): ≤ 1 h

## C#Cc1cn([C@H]2C[C@H](O)[C@@H](CO)O2)c(=O)[nH]c1=O [EDU, 5-Ethynyl-2′-deoxyuridine]
Lewis lung carcinoma
  inhibition of Lewis lung carcinoma tumor growth: reduction in tumor growth; also recorded: highly efficient in blocking tumor growth
Mouse gut crypt cells
  ability to induce cell cycle synchrony in the mouse gut: shown to induce cell cycle synchrony
[2]; EDU injections
  toxicity to animals: not highly toxic to animals

## COc1cc([C@@H]2c3cc4c(cc3[C@@H](O[C@@H]3O[C@@H]5CO[C@@H](C)O[C@H]5[C@H](O)[C@H]3O)[C@H]3COC(=O)[C@H]23)OCO4)cc(OC)c1O [Etoposide]
NIH3T3
  width of concentration range selectively toxic for S phase cells: 10 fold

## N.N.[Cl][Pt][Cl] [cisplatin]
Lewis lung carcinoma; daily injections
  delay of tumor formation: less than 3 days
Mouse gut crypt cells; repeated injections, any time between injections
  cell cycle synchrony of injected animals' cells: at no time were the cisplatin injected cells synchronous

## CC[C@@]1(O)C(=O)OCc2c1cc1n(c2=O)Cc2cc3c(CN(C)C)c(O)ccc3nc2-1 [topotecan]
[3]
  cell cycle synchrony of tumor cells (EDU labeling at 1, 5, 10 hours): had not been synchronized
Lewis lung carcinoma; Cell Cycle Therapy with injections every 10 hours 40 minutes and rest periods
  inhibition of tumor appearance, longer than in untreated animals: 7 to 12 days
Lewis lung carcinoma
  inhibition of Lewis lung carcinoma tumor growth: dramatically inhibited; also recorded: highly efficient in blocking tumor growth
Lewis lung carcinoma; FIG. 14B, both topotecan treatments (Cell Cycle and Daily)
  tumor growth compared to the control group: dramatic decreases in tumor growth
Lewis lung carcinoma; Lewis lung carcinoma, any treatment protocol tested
  reduction of tumor size: never been found in these studies to reduce tumor size
Lewis lung carcinoma; either protocol (Cell Cycle or daily), 9.5 days
  average tumor size relative to PBS treated animals: ¼
Lewis lung carcinoma; [5]
  tumor killing: tumor killing was enhanced
Mouse gut crypt cells; 9 injections every 10 hours
  cell cycle synchrony of gut epithelial cells: complete cell cycle synchrony
Mouse gut crypt cells; 9 injections every 10 hours, 4 to 8 hours following the final injection
  cell cycle phase / EDU incorporation of crypt cells: in S phase; also recorded: high levels of EDU incorporation
Mouse gut crypt cells; 9 injections every 10 hours, 2 hours and 10 hours following the final injection
  cell cycle phase / EDU incorporation of crypt cells: low levels of EDU incorporation; also recorded: not synthesizing DNA
Mouse gut crypt cells; 9 injections every 10 hours, 5 hours after the final injection
  cyclin D1 expression in crypt cells: greatly reduced proportion of the cells
Mouse gut crypt cells; 9 injections every 10 hours, 5 hours following the final injection
  gut cells in S phase (EDU incorporation): essentially all the cells were in S phase; also recorded: efficiently labeled with EDU
Mouse gut crypt cells; 9 injections every 10 hours, 10 hours following the final injection
  gut cells in S phase (EDU incorporation): none of the cells were in S phase; also recorded: very little EDU labeling
Mouse gut crypt cells; 9 injections every 10 hours, immediately after or 10 hours following the final injection
  cyclin D1 expression in crypt cells: expressed at high levels
Mouse gut crypt cells; 9 injections every 10 hours, immediately following the final injection
  gut cells in S phase (EDU incorporation): no cells were in S phase
Mouse gut crypt cells; 9 injections separated by 9 hours
  gut morphology, EDU incorporation and synchrony of crypt cells: unhealthy gut morphology and few gut cells able to incorporate EDU; also recorded: no evidence of cell cycle synchrony
Mouse gut crypt cells; 9 injections separated by 10 hours, C57Black mice with Lewis lung carcinoma
  cell cycle synchrony of normal gut cells in tumor-bearing animals: induced cell cycle synchrony; also recorded: have been synchronized
Mouse gut crypt cells; 9 injections separated by times other than every 10 hours
  synchronization of gut tissues: In no case were the tissues synchronized
Mouse gut crypt cells
  ability to induce cell cycle synchrony in the mouse gut: shown to induce cell cycle synchrony
Mouse gut crypt cells; 0.20 ml of 0.33 mg/ml or 0.20 mg/ml
  cell cycle synchrony of gut cells: almost complete
Mouse gut crypt cells; injected concentration 0.12 mg/ml
  cell cycle synchrony of gut cells: very little if any synchrony
Mouse gut crypt cells; [5]
  cell cycle synchrony of the gut: cell cycle synchrony of the gut was observed
  crypt cell division interval: 12 h
Mouse gut crypt cells; mouse, in vivo
  toxicity to gut tissue: Even greater toxicity
DNA synthesis
  effect on rate of DNA synthesis: dramatically reduces the rate of DNA synthesis
[2]; 9 injections, spacings 9 h 30 min to 11 h 20 min, weight over next 10 days, C57Bl/6 mice
  injection spacing best tolerated: 10 hours 40 minutes
[2]; mouse, in vivo
  percent weight loss, injections separated by cell cycle length compared to daily injections: dramatically reduced
  toxicity on continued injections: without developing significant toxicity
[4]; 4 injections every 10 hours separated by 40 hours without injection
  total amount of drug tolerated by the animals: increased
[4]; 9 injections at 8, 12, 14, 16 or 20 hours between injections
  ability of animals to survive repeated injections: had to be euthanized
